Measured values from ChEMBL document CHEMBL2429821, “A Casein kinase 1/Checkpoint kinase 1 pyrazolo-pyridine protein kinase inhibitor as novel activator of the p53 pathway” (Bioorg Med Chem Lett, 2013).

Legend:
[1] = biological target: Casein kinase II (Homo sapiens) (UniProt P67870+P68400+P19784); experiment: Inhibition of human CK2 assessed as residual activity at 10 uM relative to control; format: protein-complex assay
[2] = biological target: T1, Serine/threonine-protein kinase Sgk1 (Homo sapiens) (UniProt O00141); experiment: Inhibition of human SGK1 assessed as residual activity at 10 uM relative to control
T1 sequence (whole entry): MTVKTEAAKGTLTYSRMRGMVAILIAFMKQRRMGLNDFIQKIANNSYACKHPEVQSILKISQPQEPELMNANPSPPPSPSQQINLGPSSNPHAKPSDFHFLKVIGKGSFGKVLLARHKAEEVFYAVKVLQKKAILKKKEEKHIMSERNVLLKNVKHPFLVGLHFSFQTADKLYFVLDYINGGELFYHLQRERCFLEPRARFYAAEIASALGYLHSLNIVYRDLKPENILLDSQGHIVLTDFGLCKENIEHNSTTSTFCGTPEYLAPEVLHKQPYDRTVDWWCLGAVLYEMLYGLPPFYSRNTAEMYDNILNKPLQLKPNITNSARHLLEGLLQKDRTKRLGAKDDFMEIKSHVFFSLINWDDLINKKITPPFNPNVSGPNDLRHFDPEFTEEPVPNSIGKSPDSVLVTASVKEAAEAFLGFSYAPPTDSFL

[3] = biological target: Insulin-like growth factor 1 receptor (Homo sapiens) (UniProt P08069); experiment: Inhibition of human IGF-1R assessed as residual activity at 1 uM relative to control
[4] = biological target: T2, Inhibitor of nuclear factor kappa-B kinase subunit epsilon (Homo sapiens) (UniProt Q14164); experiment: Inhibition of human IKKepsilon assessed as residual activity at 10 uM relative to control
T2 sequence (whole entry): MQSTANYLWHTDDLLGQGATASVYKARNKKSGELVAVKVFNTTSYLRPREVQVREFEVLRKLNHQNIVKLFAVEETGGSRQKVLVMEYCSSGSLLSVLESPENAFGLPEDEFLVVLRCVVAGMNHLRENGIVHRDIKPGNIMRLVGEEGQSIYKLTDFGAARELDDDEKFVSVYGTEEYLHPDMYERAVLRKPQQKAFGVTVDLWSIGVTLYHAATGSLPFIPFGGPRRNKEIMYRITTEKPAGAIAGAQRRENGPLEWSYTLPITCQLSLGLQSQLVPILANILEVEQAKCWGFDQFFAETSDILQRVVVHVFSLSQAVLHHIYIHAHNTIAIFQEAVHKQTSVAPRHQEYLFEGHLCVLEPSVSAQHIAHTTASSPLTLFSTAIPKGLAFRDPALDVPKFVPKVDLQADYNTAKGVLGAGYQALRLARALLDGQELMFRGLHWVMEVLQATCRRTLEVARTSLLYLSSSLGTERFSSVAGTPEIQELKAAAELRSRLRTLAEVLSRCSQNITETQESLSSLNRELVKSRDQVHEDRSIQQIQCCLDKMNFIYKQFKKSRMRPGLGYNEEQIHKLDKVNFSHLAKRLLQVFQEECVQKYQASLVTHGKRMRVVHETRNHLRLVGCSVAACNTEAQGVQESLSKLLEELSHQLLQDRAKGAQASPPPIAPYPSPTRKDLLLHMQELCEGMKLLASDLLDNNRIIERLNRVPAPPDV

[5] = biological target: T2, Inhibitor of nuclear factor kappa-B kinase subunit epsilon (Homo sapiens); experiment: Inhibition of human IKKepsilon assessed as residual activity at 1 uM relative to control
[6] = biological target: Serine/threonine-protein kinase Nek6 (Homo sapiens) (UniProt Q9HC98); experiment: Inhibition of human NEK6 assessed as residual activity at 10 uM relative to control
[7] = biological target: Cyclin-dependent kinase 2 (Homo sapiens) (UniProt P24941); experiment: Inhibition of human CDK2 assessed as residual activity at 10 uM relative to control
[8] = biological target: Serine/threonine-protein kinase Nek6 (Homo sapiens) (UniProt Q9HC98); experiment: Inhibition of human NEK6 assessed as residual activity at 1 uM relative to control
[9] = biological target: Serine/threonine-protein kinase PLK1 (Homo sapiens) (UniProt P53350); experiment: Inhibition of human PLK1 assessed as residual activity at 1 uM relative to control
[10] = biological target: Tyrosine-protein kinase SYK (Homo sapiens) (UniProt P43405); experiment: Inhibition of human SYK assessed as residual activity at 1 uM relative to control
[11] = biological target: T3, Inhibitor of nuclear factor kappa-B kinase subunit beta (Homo sapiens) (UniProt O14920); experiment: Inhibition of human IKKbeta assessed as residual activity at 1 uM relative to control
T3 sequence (whole entry): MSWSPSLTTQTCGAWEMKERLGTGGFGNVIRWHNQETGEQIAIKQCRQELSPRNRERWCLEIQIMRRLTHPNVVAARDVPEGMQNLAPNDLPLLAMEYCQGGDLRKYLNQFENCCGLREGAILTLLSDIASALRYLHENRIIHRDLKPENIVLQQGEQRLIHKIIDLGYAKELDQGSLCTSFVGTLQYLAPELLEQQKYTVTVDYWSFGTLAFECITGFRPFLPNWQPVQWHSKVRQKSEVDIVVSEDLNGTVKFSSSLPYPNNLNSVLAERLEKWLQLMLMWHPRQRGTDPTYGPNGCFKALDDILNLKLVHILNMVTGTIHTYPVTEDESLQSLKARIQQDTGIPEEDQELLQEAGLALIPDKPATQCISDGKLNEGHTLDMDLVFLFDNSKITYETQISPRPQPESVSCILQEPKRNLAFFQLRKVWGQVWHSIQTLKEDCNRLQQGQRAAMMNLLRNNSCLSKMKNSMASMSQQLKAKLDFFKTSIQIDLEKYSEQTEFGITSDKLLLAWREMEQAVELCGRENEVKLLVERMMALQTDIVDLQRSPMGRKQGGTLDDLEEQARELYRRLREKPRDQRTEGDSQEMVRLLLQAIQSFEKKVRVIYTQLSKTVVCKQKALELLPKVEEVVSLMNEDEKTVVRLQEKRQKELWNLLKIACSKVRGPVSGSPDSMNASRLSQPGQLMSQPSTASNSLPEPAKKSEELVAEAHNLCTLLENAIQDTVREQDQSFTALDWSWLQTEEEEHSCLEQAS

[12] = biological target: T4, MAP kinase-activated protein kinase 5 (Homo sapiens) (UniProt Q8IW41); experiment: Inhibition of human PRAK assessed as residual activity at 10 uM relative to control
T4 sequence (whole entry): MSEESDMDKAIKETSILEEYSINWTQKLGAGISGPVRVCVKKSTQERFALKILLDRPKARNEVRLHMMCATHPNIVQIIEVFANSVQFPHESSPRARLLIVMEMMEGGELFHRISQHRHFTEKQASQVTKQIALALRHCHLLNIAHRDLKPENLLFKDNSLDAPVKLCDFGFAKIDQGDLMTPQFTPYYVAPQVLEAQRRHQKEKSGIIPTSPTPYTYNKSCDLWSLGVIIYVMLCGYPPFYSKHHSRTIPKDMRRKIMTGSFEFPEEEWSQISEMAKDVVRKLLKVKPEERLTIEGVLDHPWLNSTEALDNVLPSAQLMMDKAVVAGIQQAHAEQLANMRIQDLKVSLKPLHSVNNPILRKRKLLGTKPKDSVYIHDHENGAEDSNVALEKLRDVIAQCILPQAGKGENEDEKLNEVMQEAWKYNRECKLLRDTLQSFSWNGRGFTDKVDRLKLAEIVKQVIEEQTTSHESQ

Chain of Insulin-like growth factor 1 receptor (Homo sapiens) (P08069 31-736 limits assumed): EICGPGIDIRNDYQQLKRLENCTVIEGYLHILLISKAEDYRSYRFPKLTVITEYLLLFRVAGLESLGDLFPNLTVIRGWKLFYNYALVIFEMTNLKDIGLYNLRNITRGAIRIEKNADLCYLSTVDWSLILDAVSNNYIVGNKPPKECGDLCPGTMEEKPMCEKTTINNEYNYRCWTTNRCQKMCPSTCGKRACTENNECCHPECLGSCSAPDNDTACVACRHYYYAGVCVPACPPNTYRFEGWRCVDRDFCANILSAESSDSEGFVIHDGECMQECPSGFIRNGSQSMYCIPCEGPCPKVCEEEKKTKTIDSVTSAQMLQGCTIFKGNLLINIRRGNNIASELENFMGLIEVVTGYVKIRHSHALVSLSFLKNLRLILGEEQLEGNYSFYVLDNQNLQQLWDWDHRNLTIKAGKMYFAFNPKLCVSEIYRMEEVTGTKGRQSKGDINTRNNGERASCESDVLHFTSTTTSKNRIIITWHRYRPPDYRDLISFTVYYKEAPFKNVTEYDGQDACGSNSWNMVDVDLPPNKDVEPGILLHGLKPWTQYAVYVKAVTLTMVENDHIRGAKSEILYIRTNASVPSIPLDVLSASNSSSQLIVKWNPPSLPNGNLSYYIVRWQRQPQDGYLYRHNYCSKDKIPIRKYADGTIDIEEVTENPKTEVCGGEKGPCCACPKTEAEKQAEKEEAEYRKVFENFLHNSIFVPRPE
Chain of Insulin-like growth factor 1 receptor (Homo sapiens) (P08069 741-1367 limits assumed): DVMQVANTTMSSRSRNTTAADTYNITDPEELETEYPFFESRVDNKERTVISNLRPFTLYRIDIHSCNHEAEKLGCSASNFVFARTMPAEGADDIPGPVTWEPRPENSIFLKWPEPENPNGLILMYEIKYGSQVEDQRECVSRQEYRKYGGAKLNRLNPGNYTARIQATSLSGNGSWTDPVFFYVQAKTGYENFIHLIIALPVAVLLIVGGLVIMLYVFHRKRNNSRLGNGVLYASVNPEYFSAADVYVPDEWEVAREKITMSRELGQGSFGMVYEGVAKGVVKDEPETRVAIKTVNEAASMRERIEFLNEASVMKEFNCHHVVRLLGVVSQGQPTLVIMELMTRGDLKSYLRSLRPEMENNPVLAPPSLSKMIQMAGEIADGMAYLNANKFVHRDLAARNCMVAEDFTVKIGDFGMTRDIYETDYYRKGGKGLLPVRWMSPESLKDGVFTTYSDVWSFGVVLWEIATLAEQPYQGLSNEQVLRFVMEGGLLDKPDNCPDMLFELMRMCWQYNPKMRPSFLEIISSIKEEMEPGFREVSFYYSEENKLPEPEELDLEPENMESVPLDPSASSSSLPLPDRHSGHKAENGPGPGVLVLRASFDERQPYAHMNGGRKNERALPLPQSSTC
Chain of Serine/threonine-protein kinase Nek6 (Homo sapiens) (Q9HC98 whole entry): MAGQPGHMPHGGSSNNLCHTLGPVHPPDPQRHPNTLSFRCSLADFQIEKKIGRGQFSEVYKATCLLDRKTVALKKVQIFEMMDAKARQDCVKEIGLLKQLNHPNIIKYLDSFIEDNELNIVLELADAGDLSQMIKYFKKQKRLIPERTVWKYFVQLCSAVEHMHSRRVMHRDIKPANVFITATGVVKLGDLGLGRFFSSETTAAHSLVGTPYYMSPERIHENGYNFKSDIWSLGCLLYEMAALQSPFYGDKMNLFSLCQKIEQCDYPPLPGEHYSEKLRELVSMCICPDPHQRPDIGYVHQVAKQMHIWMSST
Chain of Serine/threonine-protein kinase PLK1 (Homo sapiens) (P53350 whole entry): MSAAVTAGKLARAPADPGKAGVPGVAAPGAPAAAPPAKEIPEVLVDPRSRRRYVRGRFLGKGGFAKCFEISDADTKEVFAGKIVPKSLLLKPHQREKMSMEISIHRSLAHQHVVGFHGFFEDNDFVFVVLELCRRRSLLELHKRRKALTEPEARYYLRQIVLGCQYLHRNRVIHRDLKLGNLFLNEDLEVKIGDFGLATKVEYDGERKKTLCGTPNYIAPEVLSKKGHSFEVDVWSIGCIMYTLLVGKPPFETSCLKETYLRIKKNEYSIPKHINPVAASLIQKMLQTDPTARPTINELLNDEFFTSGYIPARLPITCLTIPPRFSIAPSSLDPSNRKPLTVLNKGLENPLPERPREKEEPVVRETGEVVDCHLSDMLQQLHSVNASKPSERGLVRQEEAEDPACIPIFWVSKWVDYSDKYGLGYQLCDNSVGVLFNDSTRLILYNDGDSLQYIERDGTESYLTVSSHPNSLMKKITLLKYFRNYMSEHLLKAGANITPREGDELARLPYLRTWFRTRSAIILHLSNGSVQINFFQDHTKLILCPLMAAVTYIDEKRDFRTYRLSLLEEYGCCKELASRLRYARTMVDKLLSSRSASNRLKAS

Row | Activity [1] [%] | Activity [2] [%] | Activity [3] [%] | Activity [4] [%] | Activity [5] [%] | Activity [6] [%] | Activity [7] [%] | Activity [8] [%] | Activity [9] [%] | Activity [10] [%] | Activity [11] [%] | Activity [12] [%] | Structure (SMILES)
1 | 68 | 82 | 88 | 89 | 113 | 90 | 5 | 86 | 97 | 99 | 70 | 88 | CCCC(=O)Nc1n[nH]c2ncc(-c3cccnc3)cc12
2 | 107 | 21.4 | 82.7 | 82.4 | 85.1 | 78.8 | 104 | 64.9 | 76 | 69 | 44.4 | 83.7 | CC(=O)Nc1nccc(-c2c(-c3ccccc3)noc2C)n1
3 | 80.5 | 61.9 | 70.8 | 52 | 93.8 | 94.3 | 40.3 | 77.3 | 106 | 115 | 97 | 89.4 | CC(=O)Nc1cccc(-c2cnc3[nH]nc(C)c3c2)c1
